Experimental data published in ChEMBL document CHEMBL1138058, “Discovery and evaluation of N-cyclopropyl- 2,4-difluoro-5-((2-(pyridin-2-ylamino)thiazol-5-ylmethyl)amino)benzamide (BMS-605541), a selective and orally efficacious inhibitor of vascular endothelial growth factor receptor-2” (J Med Chem, 2006).

Legend:
[1] = tested on: L2987; test: Antiproliferative activity against L2987 cells; settings: Homo sapiens
[2] = tested on: HUVEC; test: Antiproliferative activity against VEGF-stimulated HUVEC; settings: Homo sapiens
[3] = Tmax in cynomolgus monkey at 5 mg/kg, po; type: ADME, organism-based, Macaca fascicularis; set-up: dose 5 mg/kg, route oral; settings: in vivo
[4] = tested on: Mus musculus; test: AUC (0-24h) in Balb/C mouse at 90 mg/kg, po; type: ADME, organism-based, Plasma; set-up: time < 24 hr, dose 90 mg/kg, route oral; settings: in vivo
[5] = Bioavailability in cynomolgus monkey at 5 mg/kg, po; type: ADME, organism-based, Macaca fascicularis; settings: in vivo
[6] = Cmax in Balb/C mouse at 90 mg/kg, po; type: ADME, organism-based; set-up: dose 90 mg/kg, route oral; settings: in vivo
[7] = biological target: Protein kinase C delta type (Homo sapiens, UniProt Q05655); test: Inhibition of PKCdelta
Sequence of Protein kinase C delta type (Q05655 whole entry): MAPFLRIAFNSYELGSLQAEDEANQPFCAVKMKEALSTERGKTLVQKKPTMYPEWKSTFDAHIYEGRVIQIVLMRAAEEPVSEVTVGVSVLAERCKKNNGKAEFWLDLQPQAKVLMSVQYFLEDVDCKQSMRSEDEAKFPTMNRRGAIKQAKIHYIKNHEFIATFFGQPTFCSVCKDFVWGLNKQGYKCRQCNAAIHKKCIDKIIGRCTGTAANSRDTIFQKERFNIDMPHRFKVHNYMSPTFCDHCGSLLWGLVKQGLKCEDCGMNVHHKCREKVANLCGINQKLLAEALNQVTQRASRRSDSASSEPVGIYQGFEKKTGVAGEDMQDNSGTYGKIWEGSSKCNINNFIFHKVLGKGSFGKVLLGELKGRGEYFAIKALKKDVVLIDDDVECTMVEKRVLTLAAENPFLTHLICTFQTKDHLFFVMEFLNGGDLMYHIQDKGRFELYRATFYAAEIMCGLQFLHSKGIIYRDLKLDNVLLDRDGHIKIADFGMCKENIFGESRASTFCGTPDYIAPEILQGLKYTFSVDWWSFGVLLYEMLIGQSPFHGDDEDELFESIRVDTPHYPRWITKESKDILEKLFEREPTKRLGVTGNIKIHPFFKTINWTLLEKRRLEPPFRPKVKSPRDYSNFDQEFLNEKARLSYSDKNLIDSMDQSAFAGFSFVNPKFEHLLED

[8] = biological target: Tyrosine-protein kinase JAK3 (Homo sapiens, UniProt P52333); test: Inhibition of JAK3
[9] = Tmax in Balb/C mouse at 90 mg/kg, po; type: ADME, organism-based; set-up: dose 90 mg/kg, route oral; settings: in vivo
[10] = biological target: Vascular endothelial growth factor receptor 1 (Homo sapiens, UniProt P17948); test: Inhibition of VEGFR1
[11] = Volume of distribution in Sprague-Dawley rat at 10 mg/kg, iv; type: ADME, organism-based; set-up: dose 10 mg/kg, route intravenous; settings: in vivo, read-out: Vss
[12] = biological target: Proto-oncogene tyrosine-protein kinase Src (Homo sapiens, UniProt P12931); test: Inhibition of Src
[13] = tested on: Rattus norvegicus; test: AUC in Sprague-Dawley rat at 50 mg/kg, po; type: ADME, organism-based, Plasma; set-up: dose 50 mg/kg, route oral; settings: in vivo
[14] = tested on: L2987; test: Inhibition of tumor growth in Athymic mouse xenografted with L2987 at 60 mg/kg after 14 days; type: functional, Homo sapiens; settings: L2987, 336 h, read-out: TGI
[15] = biological target: Fibroblast growth factor receptor 1 (Homo sapiens, UniProt P11362); test: Inhibition of FGFR1
[16] = tested on: HCT-116; test: Inhibition of tumor growth in Athymic mouse xenografted with HCT116 at 50 mg/kg after 14 days; type: functional, Homo sapiens; settings: HCT-116, 336 h, read-out: TGI
[17] = Clearance in cynomolgus monkey at 1 mg/kg, iv; settings: in vivo
[18] = biological target: Protein kinase C alpha type (Homo sapiens, UniProt P17252); test: Inhibition of PKCalpha
[19] = biological target: Tyrosine-protein kinase ITK/TSK (Homo sapiens, UniProt Q08881); test: Inhibition of Itk
[20] = biological target: SRSF protein kinase 1 (Homo sapiens, UniProt Q96SB4); test: Inhibition of SRPK1
[21] = Half life in Sprague-Dawley rat at 50 mg/kg, po; type: ADME, organism-based; set-up: dose 50 mg/kg, route oral; settings: in vivo
[22] = Bioavailability in Sprague-Dawley rat at 50 mg/kg, po; type: ADME, organism-based; settings: in vivo
[23] = biological target: Protein kinase C eta type (Homo sapiens, UniProt P24723); test: Inhibition of PKCeta
[24] = Bioavailability in Balb/C mouse at 90 mg/kg, po; type: ADME, organism-based; settings: in vivo
[25] = biological target: Tyrosine-protein kinase SYK (Homo sapiens, UniProt P43405); test: Inhibition of Syk
[26] = Cmax in cynomolgus monkey at 5 mg/kg, po; type: ADME, organism-based, Macaca fascicularis; set-up: dose 5 mg/kg, route oral; settings: in vivo
[27] = tested on: L2987; test: Inhibition of tumor growth in Athymic mouse xenografted with L2987 at 25 mg/kg after 14 days; type: functional, Homo sapiens; settings: L2987, 336 h, read-out: TGI
[28] = biological target: Cyclin-dependent kinase 2 (Homo sapiens, UniProt P24941); test: Inhibition of CDK2
[29] = tested on: L2987; test: Inhibition of tumor growth in Athymic mouse xenografted with L2987 at 180 mg/kg after 14 days; type: functional, Homo sapiens; settings: L2987, 336 h, read-out: TGI
[30] = biological target: Voltage-gated inwardly rectifying potassium channel KCNH2 (Homo sapiens, UniProt Q12809); test: Inhibition of human ERG expressed in HEK293 cells; type: cell-based
[31] = biological target: Dual specificity mitogen-activated protein kinase kinase 1 (Homo sapiens, UniProt Q02750); test: Inhibition of MEK
Sequence of Dual specificity mitogen-activated protein kinase kinase 1 (Q02750 whole entry): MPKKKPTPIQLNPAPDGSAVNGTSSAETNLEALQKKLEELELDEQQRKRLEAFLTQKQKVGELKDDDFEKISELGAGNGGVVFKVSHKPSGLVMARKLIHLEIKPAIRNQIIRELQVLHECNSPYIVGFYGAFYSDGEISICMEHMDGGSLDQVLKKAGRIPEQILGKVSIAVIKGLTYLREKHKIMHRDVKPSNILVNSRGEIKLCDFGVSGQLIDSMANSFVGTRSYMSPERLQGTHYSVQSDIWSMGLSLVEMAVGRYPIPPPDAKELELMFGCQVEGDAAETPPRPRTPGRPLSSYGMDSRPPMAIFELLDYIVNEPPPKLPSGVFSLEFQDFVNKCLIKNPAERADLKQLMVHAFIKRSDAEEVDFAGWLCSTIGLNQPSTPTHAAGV

[32] = Mean residence time in cynomolgus monkey at 5 mg/kg, po; type: ADME, organism-based, Macaca fascicularis; set-up: dose 5 mg/kg, route oral; settings: in vivo
[33] = biological target: Serine/threonine-protein kinase AKT (Homo sapiens, UniProt P31751+Q9Y243+P31749); test: Inhibition of AKT; type: protein assay
[34] = biological target: Vascular endothelial growth factor receptor 2 (Homo sapiens, UniProt P35968)
Sequence of Vascular endothelial growth factor receptor 2 (P35968 whole entry): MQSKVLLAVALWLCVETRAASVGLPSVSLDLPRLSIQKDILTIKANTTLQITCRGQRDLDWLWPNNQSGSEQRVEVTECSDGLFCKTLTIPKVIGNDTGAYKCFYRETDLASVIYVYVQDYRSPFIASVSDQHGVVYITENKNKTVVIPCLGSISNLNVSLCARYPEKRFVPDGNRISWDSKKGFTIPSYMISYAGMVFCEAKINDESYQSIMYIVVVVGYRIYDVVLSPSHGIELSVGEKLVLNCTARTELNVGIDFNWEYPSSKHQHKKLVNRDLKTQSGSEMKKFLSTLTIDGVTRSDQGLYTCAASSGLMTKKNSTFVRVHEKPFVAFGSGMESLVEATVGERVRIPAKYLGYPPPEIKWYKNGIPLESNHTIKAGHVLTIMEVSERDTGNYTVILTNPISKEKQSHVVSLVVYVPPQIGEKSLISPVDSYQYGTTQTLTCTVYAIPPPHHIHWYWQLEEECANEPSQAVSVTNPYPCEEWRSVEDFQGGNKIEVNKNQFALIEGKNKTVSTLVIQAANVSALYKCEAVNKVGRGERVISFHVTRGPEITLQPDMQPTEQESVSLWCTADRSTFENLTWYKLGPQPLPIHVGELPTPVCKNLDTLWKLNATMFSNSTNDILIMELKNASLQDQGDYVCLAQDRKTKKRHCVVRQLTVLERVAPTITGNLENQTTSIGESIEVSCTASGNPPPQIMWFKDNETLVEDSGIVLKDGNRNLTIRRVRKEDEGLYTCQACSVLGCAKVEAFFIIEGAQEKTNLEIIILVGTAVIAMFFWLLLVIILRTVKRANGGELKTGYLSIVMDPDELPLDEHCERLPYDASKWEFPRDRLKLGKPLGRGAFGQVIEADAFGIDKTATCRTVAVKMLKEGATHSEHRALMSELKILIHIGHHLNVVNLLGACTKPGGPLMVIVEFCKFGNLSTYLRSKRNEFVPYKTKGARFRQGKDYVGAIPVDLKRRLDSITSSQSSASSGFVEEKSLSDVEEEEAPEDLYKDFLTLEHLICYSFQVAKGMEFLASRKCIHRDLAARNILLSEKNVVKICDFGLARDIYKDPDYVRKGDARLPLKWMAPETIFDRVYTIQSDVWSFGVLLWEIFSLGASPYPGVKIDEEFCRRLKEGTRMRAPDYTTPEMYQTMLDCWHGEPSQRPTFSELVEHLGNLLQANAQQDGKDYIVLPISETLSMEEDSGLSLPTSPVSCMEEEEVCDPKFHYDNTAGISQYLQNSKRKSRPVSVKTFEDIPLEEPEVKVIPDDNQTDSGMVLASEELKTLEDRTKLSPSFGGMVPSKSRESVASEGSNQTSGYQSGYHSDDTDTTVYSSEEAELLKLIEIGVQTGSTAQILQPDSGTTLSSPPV

[35] = tested on: L2987; test: Inhibition of tumor growth in Athymic mouse xenografted with L2987 at 50 mg/kg after 14 days; type: functional, Homo sapiens; settings: L2987, 336 h, read-out: TGI
[36] = biological target: MAP kinase p38 (Homo sapiens, UniProt O15264+Q15759+Q16539+P53778); test: Inhibition of p38; type: protein assay
[37] = biological target: Platelet-derived growth factor receptor beta (Homo sapiens, UniProt P09619); test: Inhibition of PDGFR beta
[38] = Cmax in Sprague-Dawley rat at 50 mg/kg, po; type: ADME, organism-based; set-up: dose 50 mg/kg, route oral; settings: in vivo
[39] = Clearance in Sprague-Dawley rat at 10 mg/kg, iv; type: ADME, organism-based; set-up: dose 10 mg/kg, route intravenous; settings: in vivo
[40] = Half life in cynomolgus monkey at 5 mg/kg, po; type: ADME, organism-based, Macaca fascicularis; set-up: dose 5 mg/kg, route oral; settings: in vivo
[41] = tested on: HCT-116; test: Inhibition of tumor growth in Athymic mouse xenografted with HCT116 at 25 mg/kg after 14 days; type: functional, Homo sapiens; settings: HCT-116, 336 h, read-out: TGI
[42] = Clearance in Balb/C mouse at 10 mg/kg, iv; type: ADME, organism-based; set-up: dose 10 mg/kg, route intravenous; settings: in vivo
[43] = Tmax in Sprague-Dawley rat at 50 mg/kg, po; type: ADME, organism-based; set-up: dose 50 mg/kg, route oral; settings: in vivo
[44] = biological target: Vascular endothelial growth factor receptor 2 (Mus musculus) (UniProt P35918); test: Inhibition of FLK1
[45] = biological target: Inhibitor of NF-kappa-B kinase (IKK) (Homo sapiens, UniProt O14920+O15111+Q9Y6K9); test: Inhibition of IKK; type: protein-complex assay
[46] = biological target: MAP kinase-activated protein kinase 2 (Homo sapiens, UniProt P49137); test: Inhibition of MAPKAPK2
[47] = Mean residence time in Balb/C mouse at 90 mg/kg, po; type: ADME, organism-based; set-up: dose 90 mg/kg, route oral; settings: in vivo
[48] = biological target: Protein kinase C zeta type (Homo sapiens, UniProt Q05513); test: Inhibition of PKCzeta
[49] = tested on: Cynomolgus monkey; test: AUC in cynomolgus monkey at 5 mg/kg, po; type: ADME, organism-based, Macaca fascicularis, Plasma; set-up: dose 5 mg/kg, route oral; settings: in vivo
[50] = biological target: Receptor tyrosine-protein kinase erbB-2 (Homo sapiens, UniProt P04626); test: Inhibition of Her2
[51] = tested on: HCT-116; test: Inhibition of tumor growth in Athymic mouse xenografted with HCT116 at 12.5 mg/kg after 14 days; type: functional, Homo sapiens; settings: HCT-116, 336 h, read-out: TGI
[52] = biological target: Insulin-like growth factor 1 receptor (Homo sapiens, UniProt P08069); test: Inhibition of IGF1R
Sequence of Insulin-like growth factor 1 receptor (P08069 31-736 limits assumed): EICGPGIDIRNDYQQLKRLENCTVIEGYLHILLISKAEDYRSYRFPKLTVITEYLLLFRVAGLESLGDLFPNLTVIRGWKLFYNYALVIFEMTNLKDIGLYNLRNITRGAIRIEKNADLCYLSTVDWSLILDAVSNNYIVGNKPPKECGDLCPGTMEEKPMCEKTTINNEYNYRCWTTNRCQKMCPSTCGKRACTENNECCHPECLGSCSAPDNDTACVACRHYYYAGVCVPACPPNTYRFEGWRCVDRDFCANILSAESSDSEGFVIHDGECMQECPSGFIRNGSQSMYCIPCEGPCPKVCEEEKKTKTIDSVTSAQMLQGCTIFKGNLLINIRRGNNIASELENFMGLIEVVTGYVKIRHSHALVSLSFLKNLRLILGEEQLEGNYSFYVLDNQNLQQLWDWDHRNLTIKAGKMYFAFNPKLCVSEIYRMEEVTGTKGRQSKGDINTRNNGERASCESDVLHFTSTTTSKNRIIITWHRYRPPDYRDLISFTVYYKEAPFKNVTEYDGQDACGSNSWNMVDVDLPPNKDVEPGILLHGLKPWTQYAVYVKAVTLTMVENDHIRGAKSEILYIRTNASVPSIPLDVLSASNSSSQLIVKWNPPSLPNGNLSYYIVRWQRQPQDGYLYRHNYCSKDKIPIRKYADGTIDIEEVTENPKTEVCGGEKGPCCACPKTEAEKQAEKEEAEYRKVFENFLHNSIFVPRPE
Sequence of Insulin-like growth factor 1 receptor (P08069 741-1367 limits assumed): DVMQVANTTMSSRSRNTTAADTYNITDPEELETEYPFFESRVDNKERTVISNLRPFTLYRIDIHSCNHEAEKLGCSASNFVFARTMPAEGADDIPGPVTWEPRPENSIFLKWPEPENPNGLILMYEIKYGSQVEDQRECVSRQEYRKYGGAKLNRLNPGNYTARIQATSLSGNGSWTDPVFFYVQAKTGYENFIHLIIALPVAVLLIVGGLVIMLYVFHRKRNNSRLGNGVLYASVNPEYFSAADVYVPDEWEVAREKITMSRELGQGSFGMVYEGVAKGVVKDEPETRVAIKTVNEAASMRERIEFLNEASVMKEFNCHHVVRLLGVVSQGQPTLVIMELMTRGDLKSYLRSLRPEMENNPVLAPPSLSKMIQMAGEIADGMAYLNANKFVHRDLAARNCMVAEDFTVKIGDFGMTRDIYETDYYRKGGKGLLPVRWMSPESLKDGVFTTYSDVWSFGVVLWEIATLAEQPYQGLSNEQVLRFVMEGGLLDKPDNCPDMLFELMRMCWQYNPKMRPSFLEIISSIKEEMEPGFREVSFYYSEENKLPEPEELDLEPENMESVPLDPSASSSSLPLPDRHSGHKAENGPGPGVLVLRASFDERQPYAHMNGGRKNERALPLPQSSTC

[53] = tested on: L2987; test: Inhibition of tumor growth in Athymic mouse xenografted with L2987 at 90 mg/kg after 14 days; type: functional, Homo sapiens; settings: L2987, 336 h, read-out: TGI
[54] = tested on: Cynomolgus monkey; test: Volume of distribution in cynomolgus monkey at 1 mg/kg, iv; settings: in vivo
[55] = biological target: Glycogen synthase kinase-3 (Homo sapiens, UniProt P49840+P49841); test: Inhibition of GSK3; type: protein assay
[56] = biological target: Mast/stem cell growth factor receptor Kit (Homo sapiens, UniProt P10721); test: Inhibition of c-kit
Sequence of Mast/stem cell growth factor receptor Kit (P10721 whole entry): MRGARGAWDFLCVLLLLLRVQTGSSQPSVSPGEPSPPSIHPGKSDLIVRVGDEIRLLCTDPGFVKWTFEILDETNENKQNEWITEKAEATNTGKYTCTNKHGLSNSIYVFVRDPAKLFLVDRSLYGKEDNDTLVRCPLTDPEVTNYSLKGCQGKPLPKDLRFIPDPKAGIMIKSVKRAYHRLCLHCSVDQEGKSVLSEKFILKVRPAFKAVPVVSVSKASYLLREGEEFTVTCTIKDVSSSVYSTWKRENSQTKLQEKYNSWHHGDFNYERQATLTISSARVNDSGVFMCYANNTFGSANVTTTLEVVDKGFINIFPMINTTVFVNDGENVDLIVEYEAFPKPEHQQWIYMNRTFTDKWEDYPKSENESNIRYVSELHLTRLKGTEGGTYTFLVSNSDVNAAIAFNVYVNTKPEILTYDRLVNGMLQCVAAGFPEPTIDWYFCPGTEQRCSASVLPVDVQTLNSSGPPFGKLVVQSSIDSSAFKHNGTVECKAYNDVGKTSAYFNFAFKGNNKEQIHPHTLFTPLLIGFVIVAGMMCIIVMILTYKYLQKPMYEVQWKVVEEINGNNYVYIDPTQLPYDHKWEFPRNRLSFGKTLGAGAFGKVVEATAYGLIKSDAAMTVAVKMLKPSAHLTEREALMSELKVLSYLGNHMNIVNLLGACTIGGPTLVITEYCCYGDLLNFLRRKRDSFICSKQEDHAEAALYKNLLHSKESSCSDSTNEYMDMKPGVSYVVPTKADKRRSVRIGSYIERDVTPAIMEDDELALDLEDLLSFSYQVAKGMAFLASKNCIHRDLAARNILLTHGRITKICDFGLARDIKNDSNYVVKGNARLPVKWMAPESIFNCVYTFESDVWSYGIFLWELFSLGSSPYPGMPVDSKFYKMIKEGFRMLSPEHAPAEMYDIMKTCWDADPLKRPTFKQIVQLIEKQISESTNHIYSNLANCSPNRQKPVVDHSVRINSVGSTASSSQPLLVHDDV

[57] = Mean residence time in Sprague-Dawley rat at 50 mg/kg, po; type: ADME, organism-based; set-up: dose 50 mg/kg, route oral; settings: in vivo
[58] = Volume of distribution in Balb/C mouse at 10 mg/kg, iv; type: ADME, organism-based; set-up: dose 10 mg/kg, route intravenous; settings: in vivo, read-out: Vss
[59] = Half life in Balb/C mouse at 90 mg/kg, po; type: ADME, organism-based; set-up: dose 90 mg/kg, route oral; settings: in vivo

O=C(NCc1ccccc1)c1ccc(F)c(NCc2cnc(Nc3ccccn3)s2)c1
IC50 [1]: > 2500 nM
IC50 [2]: 120 nM

O=C(NC1CC1)c1cc(NCc2cnc(Nc3ccccn3)s2)c(F)cc1F
Tmax [3]: 0.75 h
AUC [4]: 649 µM·h
bioavailability [5]: 52%
Cmax [6]: 148 µM
IC50 [7]: > 40000 nM
IC50 [8]: > 50000 nM
Tmax [9]: 0.5 h
IC50 [10]: 400 nM
Vd [11]: 1.1 L/kg
IC50 [12]: > 10000 nM
AUC [13]: 202 µM·h
inhibition in vivo at 60 mg/kg [14]: 16%
IC50 [1]: > 2500 nM
IC50 [15]: > 5000 nM
inhibition in vivo at 50 mg/kg [16]: 64%
clearance [17]: 3.9 mL/min/kg
IC50 [18]: > 40000 nM
IC50 [19]: > 50000 nM
IC50 [20]: > 10000 nM
half-life [21]: 2.2 h
bioavailability [22]: 100%
IC50 [23]: > 40000 nM
bioavailability [24]: 100%
IC50 [25]: > 50000 nM
Cmax [26]: 8 µM
inhibition in vivo at 25 mg/kg [27]: 23%
IC50 [28]: > 10000 nM
inhibition in vivo at 180 mg/kg [29]: 67%
IC50 [30]: 16600 nM
IC50 [31]: > 5000 nM
MRT [32]: 7.9 h
IC50 [33]: > 5000 nM
IC50 [34]: 23 nM
inhibition in vivo at 50 mg/kg [35]: 67%
IC50 [36]: > 5000 nM
IC50 [37]: 200 nM
Cmax [38]: 44 µM
clearance [39]: 13.6 mL/min/kg
half-life [40]: 7.1 h
inhibition in vivo at 25 mg/kg [41]: 51%
clearance [42]: 11.8 mL/min/kg
Tmax [43]: 2 h
IC50 [44]: 40 nM
IC50 [45]: > 10000 nM
IC50 [46]: > 50000 nM
MRT [47]: 3.4 h
IC50 [48]: > 40000 nM
AUC [49]: 28.5 µM·h
IC50 [50]: > 50000 nM
inhibition in vivo at 12.5 mg/kg [51]: 21%
IC50 [52]: > 25000 nM
inhibition in vivo at 90 mg/kg [53]: 55%
Vss [54]: 1.6 L/kg
IC50 [2]: 25 nM
IC50 [55]: > 5000 nM
IC50 [56]: 370 nM
MRT [57]: 3.5 h
Vd [58]: 1.7 L/kg
half-life [59]: 1.7 h

O=C(NC1CC1)c1ccc(F)c(CCc2cnc(Nc3ccccn3)s2)c1
IC50 [1]: > 2500 nM
IC50 [2]: 5 nM

CONC(=O)c1cccc(CSc2cnc(Nc3ccccn3)s2)c1
IC50 [1]: > 2500 nM
IC50 [2]: 110 nM

COc1ccc(C(=O)Nc2ncc(SCc3ncc(C(C)(C)C)o3)s2)cc1OC
IC50 [28]: 50 nM
IC50 [34]: 1900 nM

O=C(NC1CCCC1)c1ccc(F)c(NCc2cnc(Nc3ccccn3)s2)c1
IC50 [1]: > 2500 nM

CNC(=O)c1cc(NCc2cnc(Nc3ccccn3)s2)c(F)cc1F
IC50 [1]: > 2500 nM
IC50 [2]: 52 nM

CNC(=O)c1ccc(F)c(NCc2cnc(Nc3ccccn3)s2)c1
IC50 [1]: > 2500 nM
IC50 [2]: 20 nM

CNC(=O)c1cccc(CSc2cnc(Nc3ccccn3)s2)c1
IC50 [1]: > 2500 nM

O=C(NC1CC1)c1ccc(F)c(NCc2cnc(Nc3ccccn3)s2)c1
IC50 [1]: > 2500 nM
IC50 [2]: 14 nM

CNC(=O)c1cccc(NCc2cnc(Nc3ccccn3)s2)c1
IC50 [1]: > 2500 nM

O=C(NCCN1CCOCC1)c1ccc(F)c(NCc2cnc(Nc3ccccn3)s2)c1
IC50 [1]: > 2500 nM

O=C(NCc1ccccn1)c1ccc(F)c(NCc2cnc(Nc3ccccn3)s2)c1
IC50 [1]: > 2500 nM
IC50 [2]: 53 nM
